pIC50: −log10 of the molar value. Structures can show the parent of a compound that is named as a salt.
Assays:
aromatase [1] = target: T1, aromatase (Homo sapiens, UniProt P11511); test: Assay of aromatase-inhibiting action (in vitro), human placental microsome, 3H2O release from [1,2-3H]androstenedione; format: biochemical; conditions: 2 μM [1,2-3H]androstenedione, 180 μM NADPH, pH 7.5, 37° C., 20 minutes
T1 construct: 150 μg of freeze dried human placental microsome; from tissue; host or cells: human placenta, microsomes
T1 sequence (P11511 1-503): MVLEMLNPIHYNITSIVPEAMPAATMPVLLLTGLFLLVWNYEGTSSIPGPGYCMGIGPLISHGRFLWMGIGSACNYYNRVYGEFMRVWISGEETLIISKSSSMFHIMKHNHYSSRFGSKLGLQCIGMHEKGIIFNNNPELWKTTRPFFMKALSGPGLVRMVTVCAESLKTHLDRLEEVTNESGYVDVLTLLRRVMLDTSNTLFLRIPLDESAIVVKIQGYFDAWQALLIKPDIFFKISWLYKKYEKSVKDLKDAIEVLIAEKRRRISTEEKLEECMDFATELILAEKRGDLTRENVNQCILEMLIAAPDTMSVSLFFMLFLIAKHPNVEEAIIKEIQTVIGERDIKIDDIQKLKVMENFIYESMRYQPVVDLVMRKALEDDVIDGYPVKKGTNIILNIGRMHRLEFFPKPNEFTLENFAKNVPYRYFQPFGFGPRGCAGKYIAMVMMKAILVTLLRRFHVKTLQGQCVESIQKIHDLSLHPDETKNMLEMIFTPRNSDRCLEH
Procedure: (1) Assay of aromatase-inhibiting action (in vitro)
Human placental microsome (centrifuged at 105,000×g for 60 minutes) was prepared, according to the method of Ryan (The Journal of Biological Chemistry, 234, 268-272, (1959)). The microsome was used after it was washed twice with 0.5 mM dithiothreitol solution, freeze dried, and stored at -20° C.
The aromatase-inhibiting action was assayed according to the method developed by Tompson and Siiteri (Journal of Biological Chemistry, 249, 5373-5378, (1974)). Namely, the method comprises quantitatively determining ^3 H2 O released through aromatization of [1,2-^3 H]androstenedione. The experiment using the enzyme was performed in 67 mM phosphate buffer (pH 7.5) so that the final amount of the incubation solution could be 0.5 ml. The incubation solution contained 180 μM of NADPH, 2μM of [1,2-^3 H]androstenedione, 150 μg of freeze dried human placental microsome, 25 μl of methanol and a test compound in various concentrations. Incubation was performed in the air at 37° C. for 20 minutes, the reaction was terminated with addition of 3 ml of chloroform, and the mixture was stirred for 40 seconds. The mixture was centrifuged at 700×g for 10 minutes, 0.3 ml of the aqueous solution was taken from the supernatant, the scintillation mixture was added, and the amount of ^3 H2 O formed was measured.

aromatase [2] = test: Assay of aromatase-inhibiting action (in vivo), inhibition of DHEAS-induced cornification of vaginal smear; design: species or system rat; conditions: for Inhibition rate (cornification-inhibiting action against cornification in the solvent administration group): mature female rats after enucleation of the pituitary gland, 2 mg/kg test compound orally with 16 mg/kg DHEAS once a day, 4 days, smears of day 3 to 5
Procedure: (2) Assay of aromatase-inhibiting action (in vivo)
Aromatase-inhibiting action was assayed according to the method developed by G. H. Deckers and A. H. W. M. Schuurs (Journal of Steroid Biochemistry,32, 625-631, (1989)).
Namely, groups of mature female rats at one week after enucleation of the pituitary gland were used, each group consisting of 8 to 10 animals. 16 mg/kg of dehydroepiandrosterone sulfate (DHEAS) and 5 ml/kg of a solvent (physiological saline containing 2% polysorbate 80), or DHEAS and 2 mg/kg of a test compound suspended in the solvent were orally administered to each rat once a day for the succeeding 4 days. For 6 days starting from the next day of the first administration, vaginal smear was sampled and observed by a microscope after being stained with Giemsa staining solution. Cornification of the vaginal smear with DHEAS was observed from 3 days after the first administration, and its action disappeared 6 days thereafter. Therefore, the cornification smear number was assumed to be the total of 3 days from the third day to fifth day after the initiation of administration. A cornification-inhibiting action with a test compound was expressed as the rate against cornification in the solvent administration group.
In this connection, the cornification of vaginal smear is caused by estrogens biosynthesized from DHEAS by aromatase, and therefore, when aromatase is inhibited, inhibition of cornification is observed.

[3] = 16 mg/kg DHEAS orally, once a day, rats

| Structure (SMILES) | pIC50 (aromatase [1]) | Inhibition rate (cornification-inhibiting action against cornification in the solvent administration group) (aromatase [2]) | Cornification of the vaginal smear with DHEAS observed from (days after the first administration) (aromatase [2]; [3]) | disappearance of the cornification action of DHEAS (days thereafter) (aromatase [2]; [3]) |
| --- | --- | --- | --- | --- |
| C[C@]12C=CC(=O)C=C1C[C@@H](S)[C@@H]1[C@@H]2CC[C@]2(C)C(=O)OCC[C@@H]12 [Example 16, 7α-mercapto-D-homo-17-oxaandrosta-1,4-diene-3,17a-dione] | 6.30 | 70.6 ± 15.6% |  |  |
| C[C@]12CC[C@H]3[C@@H]([C@H](S)CC4=CC(=O)C=C[C@@]43C)[C@@H]1CCOC2 [Example 8, 7α-mercapto-D-homo-17-oxaandrosta-1,4-dien-3-one] | 6.40 | 68.2 ± 13.6% |  |  |
| CC(=O)S[C@H]1CC(=O)C=C2C[C@@H](SC(C)=O)[C@@H]3[C@H](CC[C@]4(C)C(=O)OCC[C@@H]34)[C@]21C [Example 43, 1α,7α-bis(acetylthio)-D-homo-17-oxaandrost-4-ene-3,17a-dione] |  | 70.6 ± 15.6% |  |  |
| C[C@]12CC[C@H](OS(=O)(=O)O)CC1=CC[C@@H]1[C@@H]2CC[C@]2(C)C(=O)CC[C@@H]12 [DHEAS, dehydroepiandrosterone sulfate, reference compound] |  |  | 3 days | 6 days |
| C[C@]12CCC(=O)C=C1C[C@@H](Sc1ccc(N)cc1)[C@@H]1[C@@H]2CC[C@]2(C)C(=O)OCC[C@@H]12 [Example 1, 7α-[(4-aminophenyl)thio]-D-homo-17-oxaandrost-4-ene-3,17a-dione] | 5.64 |  |  |  |
